Experimental data published in patent US10835540B2, “Pharmaceutical use” (Lucolas-M.D. Ltd., priority 2011, dated 2020).

Test system: mastodynia
Experiment: Previous prescriptions for pre-menstrual breast pain (anamnesis, Example 8)
Assay type: in vivo, human
Conditions: Example 8 patient; for effect of previous prescription on breast pain symptoms: 'The same applies' in b116 refers to 'basically without any effect'
Excerpt: Pre-menstrual syndrome with symptoms of strong pain in both breasts since puberty. Dynamic increase of the symptoms with extremely strong tactile sensitivity, strong sensation of swelling and tension with pain symptoms diffusely radiating into the chest and the arms, which becomes virtually unbearable until the beginning of the menstruation. Unable to work because of these conditions for 2-4 days per month since 3 years. Intimate touching not possible for 14 days per month due to the pathologic tactile hyper-sensitivity. Fading-away of the symptoms only 7-10 days after the beginning of the menstruation.

SMILES	effect of previous prescription on breast pain symptoms	effect on breast pain symptoms (20 mg)	side-effects (20 mg, mainly cardiovascular, led to quitting the therapy)
CC(C)C[C@H]1C(=O)N2CCC[C@H]2[C@]2(O)O[C@](NC(=O)[C@@H]3C=C4c5cccc6[nH]c(Br)c(c56)C[C@H]4N(C)C3)(C(C)C)C(=O)N12 [Bromocriptin]	The same applies	–	–
C#C[C@]1(O)CC[C@H]2[C@@H]3CCC4=Cc5oncc5C[C@]4(C)[C@H]3CC[C@@]21C [Danazol]	The same applies	–	–
CC/C(=C(\c1ccccc1)c1ccc(OCCN(C)C)cc1)c1ccccc1 [Tamoxifen]	–	considerable alleviation of the symptoms	uncontrolled increase of blood pressure
